For one assay, the target named is human melanin concentrating hormone receptor (MCHR1) (Homo sapiens (Human), UniProt Q99705, A5T/E4Q). Nature of the assay: Radioligand binding assay for assessment of MCHR1 activity. The note with it: Table A; membranes of HEK-293 cells expressing mutated (E4Q, A5T) hMCHR1; competition with [Phe13,[125I]Tyr19]-MCH. The procedure: Radioligand Binding Assay for Assessment of MCHR1 Activity
Chain of human melanin concentrating hormone receptor (MCHR1) (Q99705 whole entry E4Q/A5T): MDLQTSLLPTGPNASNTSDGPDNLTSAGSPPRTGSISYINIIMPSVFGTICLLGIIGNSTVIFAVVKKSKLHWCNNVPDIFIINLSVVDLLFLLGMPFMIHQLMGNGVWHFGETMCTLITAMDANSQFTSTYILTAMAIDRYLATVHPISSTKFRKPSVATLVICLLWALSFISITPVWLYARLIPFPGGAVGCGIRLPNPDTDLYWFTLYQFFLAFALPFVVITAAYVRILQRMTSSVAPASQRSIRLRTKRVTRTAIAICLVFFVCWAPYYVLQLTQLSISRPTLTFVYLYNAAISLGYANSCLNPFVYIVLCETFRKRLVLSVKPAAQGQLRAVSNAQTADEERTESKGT
An in vitro binding assay was used to determine the compound Ki value or ability to antagonize binding of a peptide agonist to the human melanin concentrating hormone receptor (MCHR1). […] Binding experiments were carried out with 0.5-1.0 μg of membrane protein incubated in a total of 0.2 mL in 25 mM HEPES (pH 7.4) with 10 mM MgCl2, 2 mM EGTA, and 0.1% BSA (Binding Buffer) for 90 min. For competition binding assays, reactions were carried out in the presence of with 0.06-0.1 nM [Phe^13, [^125I]Tyr^19]-MCH and increasing concentrations of unlabeled test molecules. […] Filters were dried, 0.05 mL MicroScint 20 was added to each well and radioactivity was subsequently quantified by scintillation counting on a TOPCOUNT® microplate scintillation counter (Packard). Inhibitory constants were determined by nonlinear least squares analysis using a four parameter logistic equation.
The term Ki denotes the dissociation constant of the complex between target and ligand, obtained from inhibition or displacement. The low end stands for tighter binding, the high end for weaker binding. Molecule `COc1cc(N2CC[C@@H](Oc3ccc(C(F)(F)F)cc3)C2=O)ccc1OCC(C)(C)O` [Example 9, (R)-1-(4-(2-Hydroxy-2-methylpropoxy)-3-methoxyphenyl)-3-(4-(trifluoromethyl)phenoxy)pyrrolidin-2-one] registered a Ki of 23 nM.
Same read-out and setting: with `COc1cc(N2CC[C@H](Oc3ccc(C(F)(F)F)cc3)C2=O)ccc1OCC(C)(C)O` [Example 10, (S)-1-(4-(2-Hydroxy-2-methylpropoxy)-3-methoxyphenyl)-3-(4-(trifluoromethyl)phenoxy)pyrrolidin-2-one] the figure was 6000 nM.

The same assay, now with this note: Table C; membranes of HEK-293 cells expressing mutated (E4Q, A5T) hMCHR1; competition with [Phe13,[125I]Tyr19]-MCH.
`Cc1cc(N2CCC(Oc3ccc(OC(F)(F)F)cc3)C2=O)ccc1OCC[S+](C)[O-]` (stereo not shown) [Example 101, 1-(3-Methyl-4-(2-(methylsulfinyl)ethoxy)phenyl)-3-(4-(trifluoromethoxy)phenoxy)pyrrolidin-2-one] registered an inhibitory constant (Ki) of 77 nM. This lies in the double-digit nanomolar range.
Same read-out and setting: with `Cc1cc(N2CC[C@@H](Oc3ccc(-c4ccccc4)cc3)C2=O)ccc1OCCS(C)(=O)=O` [Example 105, (R)-3-(Biphenyl-4-yloxy)-1-(3-methyl-4-(2-(methylsulfonyl)ethoxy)phenyl)pyrrolidin-2-one] the figure was 2 nM; with `Cc1cc(N2CC[C@H](Oc3ccc(-c4ccccc4)cc3)C2=O)ccc1OCCS(C)(=O)=O` [Example 106, (S)-3-(Biphenyl-4-yloxy)-1-(3-methyl-4-(2-(methylsulfonyl)ethoxy)phenyl)pyrrolidin-2-one], 636 nM.
Same read-out and setting: the result for `Cc1cc(N2CCC(Oc3ccc(-c4ccccc4F)cc3)C2=O)ccc1OCCS(C)(=O)=O` (stereo not shown) [Example 107] reads 5 nM; that for `Cc1cc(N2CCC(Oc3ccc(-c4ccncc4)cc3)C2=O)ccc1OCCS(C)(=O)=O` (stereo not shown) [Example 113, 1-(3-Methyl-4-(2-(methylsulfonyl)ethoxy)phenyl)-3-(4-(pyridin-4-yl)phenoxy)pyrrolidin-2-one], 55 nM; that for `Cc1cc(N2CCC(Oc3ccc(C4CC4)cc3)C2=O)ccc1OCCS(C)(=O)=O` (stereo not shown) [Example 114], 7 nM.

The same assay, now with this note: Table D; membranes of HEK-293 cells expressing mutated (E4Q, A5T) hMCHR1; competition with [Phe13,[125I]Tyr19]-MCH.
For `COc1cc(N2CC=C(Oc3ccc(C4CC4)cc3)C2=O)ccc1OCC(C)(C)O` [Example 116, 3-(4-Cyclopropylphenoxy)-1-(4-(2-hydroxy-2-methylpropoxy)-3-methoxyphenyl)-1H-pyrrol-2(5H)-one], the Ki was 3 nM. This lies in the single-digit nanomolar range.
On the same count and under the same terms, with `COc1cc(N2CC=C(Oc3ccc(C4CC4)cc3)C2=O)ccc1O` [Example 120] the figure was 10 nM.

The values are drawn from US9586900B2, “Pyrrolone or pyrrolidinone melanin concentrating hormone receptor-1 antagonists” (BRISTOL-MYERS SQUIBB COMPANY, priority 2012, dated 2017).
